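Dose response: 5 concentrations. Exposure: 48 h. Format: 96-well plates. Endpoint: linear interpolation; highest concentration if not reached. GI50: concentration for 50% inhibition of growth.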 Calls of active or inactive are those of the source. Cut-off read from the data, not from the text of the source: active = GI50 up to about 1.1 µM and inactive = higher.

Among the test systems are HCT-15; HOP-92; SF-268; SW-620; BT-549; CCRF-CEM; SF-295; MOLT-4; HCT-116; Hs-578T; RPMI-8226; MDA-MB-231; SK-MEL-2; CAKI-1; A549; UACC-257; OVCAR-4; UO-31; NCI-H23; Malme-3M.
Common to all, as to test: NCI anticancer screen, dose series, 48 h

As to `C1CN(C23OC4(N5CCOCC5)C5C6CC(C7C6C4C72)C53)CCO1` (stereo not given), the GI50 with HCT-15 is above 100 µM; in the assay with HOP-92 it was > 100 µM (inactive); in the assay on SF-268 it was > 100 µM (inactive); in the assay with SW-620 it was > 100 µM (inactive); in the assay on BT-549, > 100 µM (inactive); in the assay with CCRF-CEM, > 100 µM (inactive). Besides, the GI50 in the assay with SF-295, in the assay on MOLT-4, in the assay with HCT-116, in the assay on Hs-578T, with RPMI-8226 and with MDA-MB-231 was > 100 µM (inactive) throughout. Also, the GI50 in the assay with SK-MEL-2, in the assay with CAKI-1, in the assay with A549, in the assay on UACC-257, with OVCAR-4 and in the assay on UO-31 was > 100 µM (inactive) in each case. For the same compound, the GI50 in the assay with NCI-H23 and in the assay on Malme-3M was > 100 µM (inactive) in each case.
In the case of `O=[N+]([O-])c1cc(Cl)cc2cc(Br)cnc12`, the GI50 is above 31.6 µM in the assay on HCT-15; 5.46 µM (inactive) in the assay on HOP-92; > 10 µM (inactive) in the assay with SF-268; 28.1 µM (inactive) with BT-549; > 31.6 µM (inactive) with CCRF-CEM; 21.9 µM (inactive) in the assay with SF-295. Moreover, the GI50 is > 31.6 µM (inactive) in the assay with MOLT-4; > 31.6 µM (inactive) in the assay with HCT-116; 17.6 µM (inactive) in the assay with Hs-578T; > 31.6 µM (inactive) in the assay with RPMI-8226; 21.1 µM (inactive) in the assay on MDA-MB-231; 39.9 µM (inactive) in the assay with SK-MEL-2. Moreover, the GI50 is > 10 µM (inactive) in the assay on CAKI-1; > 31.6 µM (inactive) with A549; 31.1 µM (inactive) with UACC-257; > 31.6 µM (inactive) in the assay on OVCAR-4; > 31.6 µM (inactive) in the assay on UO-31; 26.9 µM (inactive) in the assay on NCI-H23. Also, the GI50 in the assay on Malme-3M is > 31.6 µM (inactive).
Regarding `CC1(Br)Cc2ccccc2C1=O` (stereo not given), the GI50 with HCT-15 is 7.78 µM; in the assay on HOP-92 it was 6.49 µM (inactive); with SF-268 it was 4.68 µM (inactive); with SW-620, 4.75 µM (inactive); in the assay with BT-549 it was 1.7 µM (inactive); in the assay on CCRF-CEM it was 1.75 µM (inactive). Further, the GI50 in the assay with SF-295 is 18.7 µM (inactive); in the assay on MOLT-4, 2.13 µM (inactive); in the assay with HCT-116, 3.86 µM (inactive); in the assay with Hs-578T, 6.79 µM (inactive); in the assay on RPMI-8226 it was 5.65 µM (inactive); in the assay with MDA-MB-231, 6.92 µM (inactive). Moreover, the GI50 with SK-MEL-2 is 10.1 µM (inactive); in the assay on CAKI-1, 8.71 µM (inactive); with A549 it was 12.5 µM (inactive); in the assay on UACC-257, 9.53 µM (inactive); in the assay on OVCAR-4, 6.89 µM (inactive); with UO-31, 6.95 µM (inactive). Also, the results for the GI50 in the assay on NCI-H23 and with Malme-3M were 5.41 µM (inactive) and 3.36 µM (inactive), respectively.
`Nc1nc(-c2cc(-c3cccc4ccccc34)nc(N)n2)cc(-c2cccc3ccccc23)n1`: the GI50 with HCT-15 is above 100 µM; with HOP-92 it was > 100 µM (inactive); with SF-268 it was > 100 µM (inactive); in the assay on SW-620, > 100 µM (inactive); with BT-549 it was > 100 µM (inactive); with CCRF-CEM, > 100 µM (inactive). In addition, the GI50 was 65.8 µM (inactive) with SF-295; > 100 µM (inactive) with MOLT-4; > 100 µM (inactive) in the assay on HCT-116; > 100 µM (inactive) with Hs-578T; > 100 µM (inactive) in the assay on RPMI-8226; > 100 µM (inactive) in the assay with MDA-MB-231. Also, the GI50 in the assay on SK-MEL-2, with CAKI-1, with A549, in the assay with UACC-257, in the assay with OVCAR-4 and in the assay on UO-31 was > 100 µM (inactive) each time. In addition, the GI50 in the assay on NCI-H23 and in the assay on Malme-3M was > 100 µM (inactive) throughout.
In the case of `CCCC[Si](CCCC)(CCCC)O[C@@H](/C=C/C(=O)OCC)[C@H](Cc1ccccc1)O[Si](CCCC)(CCCC)CCCC`, the GI50 in the assay on HCT-15 is above 100 µM; in the assay on HOP-92, > 100 µM (inactive); with SF-268, > 100 µM (inactive); with SW-620, > 100 µM (inactive); with BT-549, > 100 µM (inactive); with CCRF-CEM, > 100 µM (inactive). Also, the GI50 in the assay on SF-295, in the assay with MOLT-4, in the assay on HCT-116, with Hs-578T, in the assay on RPMI-8226 and with MDA-MB-231 was > 100 µM (inactive) throughout. Also, the GI50 in the assay with SK-MEL-2, with CAKI-1, in the assay on A549, with UACC-257, in the assay on OVCAR-4 and in the assay with UO-31 was > 100 µM (inactive) each time. The GI50 in the assay with NCI-H23 and with Malme-3M was > 100 µM (inactive) in each case.
Consider `CC1OC(OC2C(Oc3cc(O)c4c(c3)O[C@H](c3ccc(O)cc3)CC4=O)OC(CO)C(O)C2O)C(O)C(O)C1O` (stereo not given in full), for which the GI50 is above 100 µM with HCT-15; > 100 µM (inactive) with HOP-92; > 100 µM (inactive) in the assay on SF-268; > 100 µM (inactive) with SW-620; > 100 µM (inactive) in the assay with BT-549; > 100 µM (inactive) in the assay on CCRF-CEM. The GI50 in the assay with SF-295, with MOLT-4, with HCT-116, with Hs-578T, in the assay on RPMI-8226 and in the assay on MDA-MB-231 was > 100 µM (inactive) each time. Further, the GI50 with SK-MEL-2, in the assay with CAKI-1, in the assay on A549, with UACC-257, with OVCAR-4 and in the assay with UO-31 was > 100 µM (inactive) each time. For the same compound, the GI50 with NCI-H23 and in the assay with Malme-3M was > 100 µM (inactive) in each case.
Take `CCOC(=O)c1[nH]c(Br)c(-c2ccc(Br)cc2)c1Br`: the GI50 in the assay with HCT-15 was 0.516 µM; in the assay on HOP-92, 1.14 µM (inactive); in the assay on SF-268, 0.543 µM (active); in the assay with SW-620, 0.555 µM (active); with BT-549 it was 0.535 µM (active); in the assay with CCRF-CEM, 8.15 µM (inactive). Further, the GI50 with SF-295 is 0.263 µM (active); in the assay with MOLT-4 it was 0.367 µM (active); in the assay on HCT-116, 0.376 µM (active); in the assay with Hs-578T, 0.395 µM (active); in the assay on RPMI-8226, 6.73 µM (inactive); in the assay on MDA-MB-231, 1.2 µM (inactive). Further, the GI50 was 0.307 µM (active) in the assay on SK-MEL-2; 0.8 µM (active) with CAKI-1; 0.863 µM (active) in the assay on A549; 0.671 µM (active) in the assay with UACC-257; 1.3 µM (inactive) in the assay with OVCAR-4; 1.32 µM (inactive) in the assay with UO-31. Besides, the GI50 in the assay with NCI-H23 is 2.14 µM (inactive); in the assay with Malme-3M, 0.38 µM (active).
Turning to `O=c1oc2ccccc2c(Nc2ccc3c(c2)Sc2ccccc2O3)c1[N+](=O)[O-]`, the GI50 was 25.1 µM with HCT-15; 20.7 µM (inactive) with HOP-92; 33.6 µM (inactive) with SF-268; 27.8 µM (inactive) with BT-549; 31.7 µM (inactive) with CCRF-CEM; 22.1 µM (inactive) with SF-295. In addition, the GI50 in the assay on HCT-116 was 25.5 µM (inactive); in the assay with Hs-578T, 30.9 µM (inactive); in the assay with RPMI-8226, 13.7 µM (inactive); in the assay with MDA-MB-231, 21 µM (inactive); in the assay with SK-MEL-2, 20.5 µM (inactive); in the assay with CAKI-1 it was 26.1 µM (inactive). In addition, the GI50 was 21.1 µM (inactive) in the assay on A549; 18.5 µM (inactive) with UACC-257; 25 µM (inactive) in the assay with OVCAR-4; 25.6 µM (inactive) in the assay with UO-31; 25.9 µM (inactive) in the assay on NCI-H23; 21.2 µM (inactive) in the assay on Malme-3M.
For the compound `Cc1nn(C(=O)c2ccncc2)c2c1C(c1cccc([N+](=O)[O-])c1)SC(=N)N2` (stereo not given), the GI50 with HCT-15 was above 10 µM; with HOP-92 it was > 10 µM (inactive); with SF-268, > 10 µM (inactive); in the assay on SW-620 it was > 10 µM (inactive); in the assay on BT-549 it was > 10 µM (inactive); in the assay with CCRF-CEM, > 10 µM (inactive). For the same compound, the GI50 in the assay with SF-295, in the assay with MOLT-4, in the assay on HCT-116, in the assay with Hs-578T, with RPMI-8226 and with MDA-MB-231 was > 10 µM (inactive) throughout. The GI50 in the assay with SK-MEL-2, in the assay with CAKI-1, in the assay with A549, with UACC-257, in the assay with OVCAR-4 and in the assay on NCI-H23 was > 10 µM (inactive) throughout. Also, the GI50 with Malme-3M is > 10 µM (inactive).
As for `O=C(SCc1cccc2ccccc12)c1ccc(Cl)cc1`, the GI50 was 50.9 µM in the assay with HCT-15; 18.8 µM (inactive) in the assay with HOP-92; 80.4 µM (inactive) in the assay with SF-268; > 100 µM (inactive) in the assay with SW-620; > 100 µM (inactive) in the assay on BT-549; > 100 µM (inactive) in the assay with CCRF-CEM. Further, the GI50 in the assay on SF-295 was > 100 µM (inactive); in the assay with HCT-116 it was 66.1 µM (inactive); with Hs-578T, 79.3 µM (inactive); in the assay on RPMI-8226 it was 46.9 µM (inactive); in the assay on MDA-MB-231 it was > 100 µM (inactive); in the assay with SK-MEL-2, > 100 µM (inactive). The GI50 in the assay with CAKI-1 is > 100 µM (inactive); in the assay with A549, > 100 µM (inactive); in the assay on UACC-257, 76.7 µM (inactive); in the assay on OVCAR-4, > 100 µM (inactive); with UO-31 it was > 100 µM (inactive); in the assay with NCI-H23 it was 95.3 µM (inactive). Moreover, the GI50 in the assay with Malme-3M was 96.6 µM (inactive).

Values taken from ChEMBL document CHEMBL1201862, “PubChem BioAssay data set” (2004).
